Results: paper PMC8296708, “The pan HDAC inhibitor Givinostat improves muscle function and histological parameters in two Duchenne muscular dystrophy murine models expressing different haplotypes of the LTBP4 gene” (Skeletal Muscle, 2021)
Like-named read-outs stand apart in the source and are kept apart here.

Test: Pharmacokinetic study: plasma, blood and quadriceps Givinostat levels after single oral dose (LC-MS/MS)
Format: in vivo, mdx mice (C57BL/10ScSn-Dmd^mdx/J)
Settings: mdx mice; for Kp: quadriceps muscle and plasma
Procedure: For the PK study, C57BL/10ScSn-Dmd^mdx/J (Stock No: 001801) 9-week-old male mice were purchased from The Jackson Laboratories (Bar Harbor, Maine, USA). After 5 days of acclimatization in the animal facility, mdx mice were randomized into 4 treatment groups (28 mice/group; 4 mice/cage) and 1 untreated group (4 mice) based on their BW. Animals were administered with single oral dose of Givinostat at 5, 10, 25, and 37.5 mg/kg and samples were collected at the following time points: 0.5, 1, 1.5, 2, 3, 4, and 6 h after administration.
In the PK study, formulations were prepared suspending Givinostat in 0.5% methylcellulose at the concentrations of 0.5, 1, 2.5, and 3.75 mg/mL. The administered volume was 10 mL/kg to obtain 5, 10, 25, and 37.5 mg/kg dosages.
Mice were maintained under isoflurane anesthesia. Blood samples were collected in two aliquots from the retro-orbital plexus of mice and transferred into tubes containing heparin as anticoagulant (100 USPunits/mL) and then mice were sacrificed by cervical dislocation. One aliquot of 50 μL was diluted with the same volume of water and immediately frozen in dry ice. This blood was analyzed in order to subtract the blood content of Givinostat from the muscle homogenate. The other aliquot of blood was centrifuged for 10 min at 13,000 rpm at 4 °C and plasma was separated and frozen in dry ice. The quadriceps of the right hindlimb was removed, weighed, and then washed twice in 1 mL of PBS pH 7.4 and dried with paper, then it was frozen in dry ice.
Givinostat was determined in mouse plasma (50 μL) following a protein precipitation (200 μL of 1% HCOOH in acetonitrile) and Ostro (Waters) plate filtration. The organic phase was evaporated under a stream of nitrogen; the residue was re-dissolved in the reconstitution solvent (100 μL of 25% CH3CN-75% H2O-0.05% TFA), and 5 μL was analyzed. Givinostat concentrations were measured by LC-MS/MS method, in the calibration range of 0.5–400 ng/mL.
Givinostat was determined in diluted blood (100 μL, 1:2 in water) with a liquid-liquid extraction. Samples were mixed and extracted with 2 mL of diethyl ether and centrifuged, and the organic phase was separated and evaporated under a stream of nitrogen. The residue was re-dissolved in the reconstitution solvent (150 μL of 25% CH3CN-75% H2O-0.05% TFA), sonicated, and filtered (regenerated cellulose syringe filters), and 5 μL was analyzed by LC-MS/MS method. The calibration range of the method was 1–200 ng/mL.
Mouse quadriceps were homogenized in PBS pH = 7.4 (1:10 w/v) with ultrasonic homogenizer (Sonoplus Mini20 - Bandelin) maintaining the samples in an ice bath. Quadricep homogenate (100 μL) was added with 200 μL of 0.5% TFA in CH3CN, vortexed, and centrifuged. Then, 100 μL of supernatant was diluted with H2O (1:2). Samples were filtered (regenerated cellulose syringe filters) and aliquots of 5 μL were analyzed. Givinostat concentrations were measured by LC-MS/MS method, in the calibration range of 1–40 ng/mL.
PK parameters were evaluated on mean curves using conventional non-compartmental methodology by the software KineticaTM v. 5.1. Quadriceps concentrations were expressed as nanograms per gram of muscle, this value was obtained by multiplying the homogenate concentrations obtained for the homogenate volume, then subtracting the residual blood content, as reported in literature, considering the measured blood concentrations and dividing for the muscle weight.

[1] = male, C57BL/10ScSn-Dmd^mdx/J (mdx), mouse, blood, 5 mg/kg single oral dose
[2] = male, C57BL/10ScSn-Dmd^mdx/J (mdx), mouse, blood, 10 mg/kg single oral dose
[3] = male, C57BL/10ScSn-Dmd^mdx/J (mdx), mouse, blood, 25 mg/kg single oral dose
[4] = male, C57BL/10ScSn-Dmd^mdx/J (mdx), mouse, blood, 37.5 mg/kg single oral dose
[5] = male, C57BL/10ScSn-Dmd^mdx/J (mdx), mouse, plasma, 5 mg/kg single oral dose
[6] = male, C57BL/10ScSn-Dmd^mdx/J (mdx), mouse, plasma, 10 mg/kg single oral dose
[7] = male, C57BL/10ScSn-Dmd^mdx/J (mdx), mouse, plasma, 25 mg/kg single oral dose
[8] = male, C57BL/10ScSn-Dmd^mdx/J (mdx), mouse, plasma, 37.5 mg/kg single oral dose

blood plasma ratio (male, C57BL/10ScSn-Dmd^mdx/J (mdx), mouse, blood and plasma, 5 mg/kg single oral dose, read-out: AUCtot Blood/Plasma ratio): 1.6 | blood plasma ratio (male, C57BL/10ScSn-Dmd^mdx/J (mdx), mouse, blood and plasma, 25 mg/kg single oral dose, read-out: AUCtot Blood/Plasma ratio): 1.5 | blood plasma ratio (male, C57BL/10ScSn-Dmd^mdx/J (mdx), mouse, blood and plasma, 37.5 mg/kg single oral dose, read-out: AUCtot Blood/Plasma ratio): 1.4 | blood plasma ratio (male, C57BL/10ScSn-Dmd^mdx/J (mdx), mouse, blood and plasma, mean over 5, 10, 25, 37.5 mg/kg oral doses, read-out: AUCtot Blood/Plasma ratio, mean): 1.6 | Cmax (male, C57BL/10ScSn-Dmd^mdx/J (mdx), mouse, blood, po, 5 mg/kg, blood, 5 mg/kg single oral dose, read-out: Cmax): 35.1 ng/mL | Cmax (male, C57BL/10ScSn-Dmd^mdx/J (mdx), mouse, blood, po, 10 mg/kg, blood, 10 mg/kg single oral dose, read-out: Cmax): 170 ng/mL | Cmax (male, C57BL/10ScSn-Dmd^mdx/J (mdx), mouse, blood, po, 25 mg/kg, blood, 25 mg/kg single oral dose, read-out: Cmax): 639 ng/mL | Cmax (male, C57BL/10ScSn-Dmd^mdx/J (mdx), mouse, blood, po, 37.5 mg/kg, blood, 37.5 mg/kg single oral dose, read-out: Cmax): 1120 ng/mL | Cmax (male, C57BL/10ScSn-Dmd^mdx/J (mdx), mouse, plasma, po, 5 mg/kg, plasma, 5 mg/kg single oral dose, read-out: Cmax): 24 ng/mL | Cmax (male, C57BL/10ScSn-Dmd^mdx/J (mdx), mouse, plasma, po, 10 mg/kg, plasma, 10 mg/kg single oral dose, read-out: Cmax): 96.7 ng/mL | Cmax (male, C57BL/10ScSn-Dmd^mdx/J (mdx), mouse, plasma, po, 25 mg/kg, plasma, 25 mg/kg single oral dose, read-out: Cmax): 416 ng/mL | Cmax (male, C57BL/10ScSn-Dmd^mdx/J (mdx), mouse, plasma, po, 37.5 mg/kg, plasma, 37.5 mg/kg single oral dose, read-out: Cmax): 807 ng/mL | Kp (male, C57BL/10ScSn-Dmd^mdx/J (mdx), mouse, po, 5 mg/kg, 5 mg/kg single oral dose, read-out: AUCtot Muscle/Plasma ratio): 6.2 | Kp (male, C57BL/10ScSn-Dmd^mdx/J (mdx), mouse, po, 10 mg/kg, 10 mg/kg single oral dose, read-out: AUCtot Muscle/Plasma ratio): 5.8 | Kp (male, C57BL/10ScSn-Dmd^mdx/J (mdx), mouse, po, 25 mg/kg, 25 mg/kg single oral dose, read-out: AUCtot Muscle/Plasma ratio): 2.8 | Kp (male, C57BL/10ScSn-Dmd^mdx/J (mdx), mouse, po, 37.5 mg/kg, 37.5 mg/kg single oral dose, read-out: AUCtot Muscle/Plasma ratio): 3.2 | Kp (male, C57BL/10ScSn-Dmd^mdx/J (mdx), mouse, po, 37.5 mg/kg, mean over 5, 10, 25, 37.5 mg/kg oral doses, read-out: AUCtot Muscle/Plasma ratio, mean): ~4.5 | Cmax (male, C57BL/10ScSn-Dmd^mdx/J (mdx), mouse, quadriceps muscle, po, 5 mg/kg, muscle (quadriceps), 5 mg/kg single oral dose, read-out: Cmax): 117 ng/g | Cmax (male, C57BL/10ScSn-Dmd^mdx/J (mdx), mouse, quadriceps muscle, po, 10 mg/kg, muscle (quadriceps), 10 mg/kg single oral dose, read-out: Cmax): 197 ng/g | Cmax (male, C57BL/10ScSn-Dmd^mdx/J (mdx), mouse, quadriceps muscle, po, 25 mg/kg, muscle (quadriceps), 25 mg/kg single oral dose, read-out: Cmax): 607 ng/g | Cmax (male, C57BL/10ScSn-Dmd^mdx/J (mdx), mouse, quadriceps muscle, po, 37.5 mg/kg, muscle (quadriceps), 37.5 mg/kg single oral dose, read-out: Cmax): 1180 ng/g | blood plasma ratio (male, C57BL/10ScSn-Dmd^mdx/J (mdx), mouse, whole blood and plasma, 10 mg/kg single oral dose, read-out: AUCtot Blood/Plasma ratio): 1.8 | AUC [1]: 156 ng·h/mL | Tmax [1]: 3 h | AUC [2]: 458 ng·h/mL | Tmax [2]: 2 h | AUC [3]: 1810 ng·h/mL | Tmax [3]: 1.5 h | AUC [4]: 2180 ng·h/mL | Tmax [4]: 0.5 h | Tmax (male, C57BL/10ScSn-Dmd^mdx/J (mdx), mouse, muscle (quadriceps), 5 mg/kg single oral dose): 3 h | Tmax (male, C57BL/10ScSn-Dmd^mdx/J (mdx), mouse, muscle (quadriceps), 10 mg/kg single oral dose): 2 h | Tmax (male, C57BL/10ScSn-Dmd^mdx/J (mdx), mouse, muscle (quadriceps), 25 mg/kg single oral dose): 2 h | Tmax (male, C57BL/10ScSn-Dmd^mdx/J (mdx), mouse, muscle (quadriceps), 37.5 mg/kg single oral dose): 0.5 h | AUC [5]: 95.2 ng·h/mL | Tmax [5]: 0.5 h | AUC [6]: 261 ng·h/mL | Tmax [6]: 2 h | AUC [7]: 1230 ng·h/mL | Tmax [7]: 1.5 h | AUC [8]: 1510 ng·h/mL | Tmax [8]: 0.5 h | AUCtot Muscle/Plasma ratio, mean (mean over 5, 10, 25, 37.5 mg/kg oral doses, listed as ITF2357): 4.5 | AUCtot (muscle (quadriceps), 5 mg/kg single oral dose): 594.4 ng·h/g | AUCtot (muscle (quadriceps), 10 mg/kg single oral dose): 1511.9 ng·h/g | AUCtot (muscle (quadriceps), 25 mg/kg single oral dose): 3511.2 ng·h/g | AUCtot (muscle (quadriceps), 37.5 mg/kg single oral dose): 4804.6 ng·h/g | Cmax (plasma, 5 mg/kg single oral dose, listed as ITF2357, 5 mg/kg): 24.17 ng/mL | Cmax (plasma, 37.5 mg/kg single oral dose, listed as ITF2357, 37.5 mg/kg): 807.39 ng/mL
SMILES: CCN(CC)Cc1ccc2cc(COC(=O)Nc3ccc(C(=O)NO)cc3)ccc2c1 [Givinostat]
Detectability in plasma, blood and muscle samples after oral treatment (all doses investigated (5-37.5 mg/kg p.o.)): detectable in all plasma, blood, and muscle samples up to 6 h
